US11008340B2, “Modulators of ROR-gamma” (Vitae Pharmaceuticals, LLC, priority 2015, dated 2021)
Like-named read-outs stand apart in the source and are kept apart here.

Target: T1, recombinant RORγ Ligand Binding Domain (LBD) protein (Homo sapiens, UniProt P51449)
T1 construct: 6×His; GST
T1 sequence (P51449 269-508 limits assumed): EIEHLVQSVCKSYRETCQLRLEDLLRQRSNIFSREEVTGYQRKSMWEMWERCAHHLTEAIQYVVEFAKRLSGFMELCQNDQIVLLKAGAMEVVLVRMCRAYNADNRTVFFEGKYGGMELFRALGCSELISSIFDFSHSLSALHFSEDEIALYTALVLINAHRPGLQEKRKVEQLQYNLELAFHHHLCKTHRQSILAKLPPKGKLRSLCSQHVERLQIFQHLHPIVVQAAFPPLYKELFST
Experiment: Radio-Ligand RORγ Binding Assay (Assay 1)
Details: radio-ligand competition, RORγ LBD, read-out: Avg ROR Bind Ki
Procedure: Radio-Ligand RORγ Binding Assay (Assay 1)
Compounds described herein were tested for ability to bind to RORγ in a cell-free competition assay with commercially available radio-ligand (RL), 25-hydroxy [26,27-^3H]-cholesterol (PerkinElmer, Cat. #NET674250UC), for a ligand binding site on a recombinant RORγ Ligand Binding Domain (LBD) protein expressed as a 6×His-Glutathione-S-Transferase (GST) fusion. The assay was performed in 96-well SPA plates (PerkinElmer, Cat. #1450-401) in 50 mM HEPES buffer, pH 7.4, containing 150 mM NaCl, 5 mM MgCl2, 10% (v/v) glycerol, 2 mM CHAPS, 0.5 mM 3-octylglucopyranoside and 5 mM DTT. Tested compounds were dissolved in DMSO, and semi-log (3.162×) serial dilutions of the compounds were prepared in the same solvent. Two μL of the DMSO solutions were mixed with 28 μL of 8.6 nM 25-hydroxy [26,27-^3H]-cholesterol and 50 μL of 24 nM RORγ LBD. The plate was shaken at 700 rpm for 20 min and incubated for 10 min at rt, after which 40 μL of poly-Lys YSi SPA beads (PerkinElmer, Cat. #RPNQ0010) were added to achieve 50 μg of the beads per well. The plate was incubated on an orbital shaker for 20 min and then for 10 min without agitation at rt. SPA signal for tritium beta radiation was registered on PerkinElmer Microbeta plate reader. […] The percent inhibition vs. concentration data were fit into a four-parameter model, and IC50 values were calculated from the fit as the concentrations corresponding to the inflection points on the dose-response curves. Inhibitory constants (Ki) were calculated using the following equation, where [RL] is the concentration in the assay and KD is a dissociation constant of 25-hydroxy [26,27-^3H]-cholesterol: […]

[1] = head without unit (Tables 15, 17)
[2] = 25-hydroxy [26,27-3H]-cholesterol

| Compound | Ki [1] [nM] | Ki [2] [nM] |
| --- | --- | --- |
| CCS(=O)(=O)c1ccc(CNC(=O)c2cnc3c(c2)CCN(Cc2ccc(C#N)cc2)C3C(C)C)cc1 (single isomer, unassigned) [Hy2B-7.2] | > 1000 |  |
| CCOC(=O)c1cnc(N2CCc3cc(C(=O)NCc4ccc(S(=O)(=O)CC)cc4)cnc3[C@H]2C(C)C)nc1 (single isomer, unassigned) [Hy2B-4.1] | > 1000 |  |
| CC1c2ccc(C(=O)NCc3ccc(S(C)(=O)=O)cc3)cc2CCN1Cc1ccc(C#N)cc1 (racemic) [Hy2A-7, 2-(4-cyanobenzyl)-1-methyl-N-(4-(methylsulfonyl)benzyl)-1,2,3,4-tetrahydroisoquinoline-6-carboxamide] |  | > 1000 |
| CCS(=O)(=O)c1ccc(CNC(=O)c2ccc3c(c2)CCN(Cc2ccc(C#N)cc2)C3C)cc1 (racemic) [Hy2A-10, 2-(4-cyanobenzyl)-N-(4-(ethylsulfonyl)benzyl)-1-methyl-1,2,3,4-tetrahydroisoquinoline-6-carboxamide] |  | 100 to 1000 |
| CCS(=O)(=O)c1ccc(CNC(=O)c2cnc3c(c2)CCN(c2ncc(C(F)(F)F)cn2)[C@H]3C(C)C)cc1 (single isomer, unassigned) [Hy2B-3.1] | 100 to 1000 |  |
| CCOC(=O)c1cnc(N2CCc3cc(C(=O)NCc4ccc(S(=O)(=O)CC)cc4)cnc3[C@H]2C(C)C)nc1C(F)(F)F (single isomer, unassigned) [Hy2B-5.1] | 100 to 1000 |  |
| CCS(=O)(=O)c1ccc(CNC(=O)c2ccc3c(c2)C(C)(C)CN(Cc2cnc(C)cn2)[C@@H]3C(C)C)cc1 (single isomer, unassigned) [Hy2A-22.2] |  | 100 to 1000 |
| CCS(=O)(=O)c1ccc(CNC(=O)c2ccc3c(c2)CCN(Cc2ccc(C#N)nc2)[C@@H]3C(C)C)cc1 (single isomer, unassigned) [Hy2A-17.2] |  | 100 to 1000 |
| CCS(=O)(=O)c1ccc(CNC(=O)c2cnc3c(c2)CCN(c2ncc(Cl)cn2)[C@H]3C(C)C)cc1 (single isomer, unassigned) [Hy2B-2.1] | 100 to 1000 |  |
| CCS(=O)(=O)c1ccc([C@H](CO)NC(=O)c2ccc3c(OC[C@H]4CC[C@H](C(F)(F)F)CC4)cc(C)nc3c2)cc1 [Hy1B-4, N-((R)-1-(4-(ethylsulfonyl)phenyl)-2-hydroxyethyl)-2-methyl-4-(((1r,4R)-4-(trifluoromethyl)cyclohexyl)methoxy)quinoline-7-carboxamide] |  | 100 to 1000 |
| CCS(=O)(=O)c1ccc(CNC(=O)c2cnc3c(c2)CCN(Cc2ccc(F)cc2)C3C(C)C)cc1 (single isomer, unassigned) [Hy2B-6.2] | 100 to 1000 |  |
| CCS(=O)(=O)c1ccc(CNC(=O)c2ccc3c(Oc4ccc(C(F)(F)F)cc4)nccc3c2)cc1 [Hy1A-2, N-(4-(ethylsulfonyl)benzyl)-1-(4-(trifluoromethyl)phenoxy)isoquinoline-6-carboxamide] |  | 100 to 1000 |
| CCOC(=O)c1cnc(N2CCc3cc(C(=O)NCc4ccc(S(=O)(=O)CC)cc4)cnc3[C@@H]2C(C)C)nc1C(F)(F)F (single isomer, unassigned) [Hy2B-5.2] | 100 to 1000 |  |
| CCS(=O)(=O)c1ccc(CNC(=O)c2ccc3c(c2)CCN(Cc2ccc(OC(F)F)nc2)[C@@H]3C(C)C)cc1 (single isomer, unassigned) [Hy2A-25.2] |  | 100 to 1000 |
| CCS(=O)(=O)c1ccc(CNC(=O)c2ccc3c(c2)CCN(Cc2ccc(C#N)cn2)[C@@H]3C(C)C)cc1 (single isomer, unassigned) [Hy2A-16.2] |  | 100 to 1000 |
| CCS(=O)(=O)c1ccc(CNC(=O)c2cnc3c(c2)CCN(c2ncc(Cl)cn2)[C@@H]3C(C)C)cc1 (single isomer, unassigned) [Hy2B-2.2] | > 1000 |  |
| CCC1c2ccc(C(=O)NC(CO)c3ccc(S(=O)(=O)CC)cc3)cc2CCN1CC1CCC(C(F)(F)F)CC1 (single isomer, unassigned) [Hy2A-28.3] |  | 100 to 1000 |

Now from value to molecule:

| Ki [1] [nM] | Ki [2] [nM] | Compound |
| --- | --- | --- |
|  | 100 to 1000 | CCS(=O)(=O)c1ccc(CNC(=O)c2cn(C)c3c(Oc4ccc(C(F)(F)F)cc4)nccc23)cc1 [Hy5-1, N-(4-(ethylsulfonyl)benzyl)-1-methyl-7-(4-(trifluoromethyl)phenoxy)-1H-pyrrolo[2,3-c]pyridine-3-carboxamide] |
|  | 100 to 1000 | CCS(=O)(=O)c1ccc(CNC(=O)c2ccc3c(c2)CN(c2ncc(N4CCOCC4)cn2)C[C@H]3C(C)C)cc1 (single isomer, unassigned) [Hy7-19.1] |
|  | 100 to 1000 | CCS(=O)(=O)c1ccc(CNC(=O)c2ccc3c(c2)CN(c2ncc(C#N)cn2)C[C@@H]3C(C)C)cc1 (single isomer, unassigned) [Hy7-2.2] |
|  | 100 to 1000 | CCS(=O)(=O)c1ccc(CNC(=O)c2cn(C)c3c(OC[C@H]4CC[C@H](C(F)(F)F)CC4)nccc23)cc1 [Hy5-4, N-(4-(ethylsulfonyl)benzyl)-1-methyl-7-(((1r,4r)-4-(trifluoromethyl)cyclohexyl)methoxy)-1H-pyrrolo[2,3-c]pyridine-3-carboxamide] |
|  | < 100 | CCS(=O)(=O)c1ccc(CNC(=O)c2ccc3c(c2)CN(c2ncc(C(F)(F)F)cn2)C[C@@H]3C(C)C)cc1 (single isomer, unassigned) [Hy7-15.2] |
|  | 100 to 1000 | CCOc1cnc(N2Cc3cc(C(=O)NCc4ccc(S(=O)(=O)CC)cc4)ccc3[C@@H](C(C)C)C2)nc1 (single isomer, unassigned) [Hy7-5.2] |
| 100 to 1000 |  | CCS(=O)(=O)c1ccc(CNC(=O)c2cc3ccnc(OC[C@H]4CC[C@H](C(F)(F)F)CC4)c3[nH]2)cc1 [Hy4-5, N-(4-(ethylsulfonyl)benzyl)-7-(((1r,4r)-4-(trifluoromethyl)cyclohexyl)methoxy)-1H-pyrrolo[2,3-c]pyridine-2-carboxamide] |
|  | 100 to 1000 | CC[C@H]1CN(c2ncc(C(F)(F)F)cn2)Cc2cc(C(=O)N[C@@H](CO)c3ccc(S(=O)(=O)CC)cn3)ccc21 (single isomer, unassigned) [Hy7-18.3] |
|  | < 100 | CC[C@H]1CN(c2ncc(C(F)(F)F)cc2C#N)Cc2cc(C(=O)N[C@@H](CO)c3ccc(S(=O)(=O)CC)cc3)ccc21 (single isomer, unassigned) [Hy7-37.2] |
|  | 100 to 1000 | CC[C@@H]1CN(C2CCOCC2)Cc2cc(C(=O)N[C@@H](CO)c3ccc(S(=O)(=O)CC)cc3)ccc21 (single isomer, unassigned) [Hy7-30.1] |
|  | 100 to 1000 | CCS(=O)(=O)c1ccc(CNC(=O)c2ccc3c(c2)CN(c2ncc(-c4ccnc(OC)c4)cn2)C[C@@H]3C(C)C)cc1 (single isomer, unassigned) [Hy7-23.2] |
|  | 100 to 1000 | CC[C@@H]1CN(c2ncc(C(F)(F)F)cn2)Cc2cc(C(=O)NCc3ccc(S(=O)(=O)CC)cn3)ccc21 (single isomer, unassigned) [Hy7-10.2] |
|  | < 100 | CCOC(=O)c1cnc(N2Cc3cc(C(=O)N[C@@H](CO)c4ccc(S(=O)(=O)CC)cc4)ccc3[C@@H](CC)C2)nc1 (single isomer, unassigned) [Hy7-34.2] |
